Consider three molecules from patent US20010047099A1, “4-aminopicolinates and their use as herbicides” (priority 2000, published 2001).

Where only a bound is given, the exact number is not on record here.

Data set [1] has as its system Canada thistle (Cirsium arvense). Put plainly: Range & Pasture Crop Testing (postemergence track sprayer). The class given is in vivo. The note with it: for Post-emergent Evaluation - % control CIRAR: Table 9, rate 70 g/Ha, 3 weeks after treatment. As to the method: (§1) By applying the well-accepted probit analysis as described by J. Berkson in Journal of the […], 48, 565 (1953) and by D. Finney in “Probit Analysis” Cambridge University Press (1952), the above data can be used to calculate GR50 and GR80 values, which are defined as growth reduction factors that correspond to the effective dose of herbicide required to kill or control 50 percent or 80 percent, respectively, of a target plant.
(§2) Rates are calculated based upon 5 doses being applied. The high rate (X), followed by serial dilutions of 1/2×, 1/4×, 1/8× and 1/16×. Compound requirements are based upon the 187 L/ha carrier volume, specifications of the delivery system (Mandel track sprayer) and generating 24 mL of technical spray material to allow for the dilutions and overage in the sprayer. [formula]
(§3) All technical materials were formulated in 97:3 (acetone:DMSO) with 0.25% X-77. The total volume of solvent is maintained at less than 7%. An overhead Mandel track sprayer calibrated to deliver 187 L/ha was used for all treatment applications (postemergence). Picloram was included as a comparison treatment.
(§4) Solutions were applied with a mechanized track-sprayer at the following settings:
(§5) Spray height: 17 inches above top of plants
(§6) This provides an application volume of 187 L/ha.
(§7) Percent weed control (burn down) was evaluated 3 weeks after treatment. Visual control on a 0-100 linear scale was used, with 0 representing no control and 100 representing total control. Burn down ratings were taken for annual and perennial weed species.

Data set [2] has as its system wheat (Triticum aestivum). As to the kind of experiment: Postemergence herbicidal activity, selectivity to wheat. The class given is in vivo. Conditions: Table 5; crop (wheat); rate 125 ppm. The procedure: Seeds of the desired test plant species were planted in Grace-Sierra MetroMix® 306 planting mixture, which typically has a pH of 6.0 to 6.8 and an organic matter content of about 30 percent, in plastic pots with a surface area of 64 square centimeters. When required to ensure good germination and healthy plants, a fungicide treatment and/or other chemical or physical treatment was applied. The plants were grown for 7-21 days in a greenhouse with an approximate 15 hr photoperiod which was maintained at about 23-29° C. during the day and 22-28° C. during the night. Nutrients and water were added on a regular basis and supplemental lighting was provided with overhead metal halide 1000-Watt lamps as necessary. The plants were employed for testing when they reached the first or second true leaf stage.
A weighed amount, determined by the highest rate to be tested, of each test compound was placed in a 20 mL glass vial and was dissolved in 4 mL of a 97:3 v/v (volume/volume) mixture of acetone and dimethyl sulfoxide (DMSO) to obtain concentrated stock solutions. […] The concentrated stock solutions obtained were diluted with an aqueous mixture containing acetone, water, isopropyl alcohol, DMSO, Atplus 411F crop oil concentrate, and Triton X-155 surfactant in a 48.5:39:10:1.5:1.0:0.02 v/v ratio to obtain spray solutions of known concentration. The solutions containing the highest concentration to be tested were prepared by diluting 2 mL aliquots of the stock solution with 13 mL of the mixture and lower concentrations were prepared by serial dilution of the stock solution. Approximately 1.5 mL aliquots of each solution of known concentration were sprayed evenly onto each of the test plant pots using a DeVilbiss atomizer driven by compressed air pressure of 2 to 4 psi ([…]) to obtain thorough coverage of each plant. Control plants were sprayed in the same manner with the aqueous mixture. In this test an application rate of 1 ppm results in the application of approximately 1 g/Ha.
The treated plants and control plants were placed in a greenhouse as described above and watered by sub-irrigation to prevent wash-off of the test compounds. After 2 weeks the condition of the test plants as compared with that of the untreated plants was determined visually and scored on a scale of 0 to 100 percent where 0 corresponds to no injury and 100 corresponds to complete kill.

In data set [3] the test system is lambsquarters (Chenopodium album). Put plainly: Postemergence herbicidal activity. The class given is in vivo. The note with it: Table 5; rate 125 ppm. The method, boiled down:
(§8)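 Plants are raised from seed under greenhouse conditions until the first or second true leaf appears. They are then sprayed with test solutions at known concentrations, where 1 ppm corresponds to roughly 1 g/Ha. Two weeks later, injury is rated by eye from 0 to 100%.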

Data set [4] deals with wild buckwheat (Polygonum convolvulus). Put plainly: Postemergence herbicidal activity. The class given is in vivo. Conditions: rate 125 ppm. The method, boiled down:
as §8

Data set [5] has as its system chickweed (Stellaria media). Put plainly: Postemergence herbicidal activity. It counts as in vivo. Conditions: rate 125 ppm. The method, boiled down:
as §8

Data set [6] has as its system cocklebur (Xanthium strumarium). Put plainly: Postemergence herbicidal activity. It counts as in vivo. The note with it: Table 1, rate 125 ppm, visual, after 2 weeks. The method, boiled down:
as §8

Data set [7] concerns common ragweed (Ambrosia artemisiifolia). As to the kind of experiment: Range & Pasture Crop Testing (postemergence track sprayer). The class given is in vivo. Conditions: Table 9; rate 70 g/Ha; 3 week evaluation. The procedure:
as §2, §3, §4, §5, §6, §7

Data set [8] relates to broadleaf dock (Rumex obtusifolia). The data set is described as above. The class given is in vivo. Conditions: Table 9; rate 70 g/Ha; 3 weeks after treatment. As to the method: as §2, §3, §4, §5, §6, §7
The subject of data set [9] is crested wheatgrass (Agropyron cristatum) (grass crop). The data set is described as above. The class given is in vivo. Conditions: Table 9, rate 70 g/Ha, 3 weeks after treatment. As to the method:
as §2, §3, §4, §5, §6, §7

Data set [10] relates to morningglory (Ipomoea hederacea). Put plainly: Preemergence herbicidal activity. It counts as in vivo. Conditions: Table 6 (headed Post-emergent; text: preemergence), after 3 weeks. Put shortly:
(§9)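 Test compounds, dissolved in acetone/DMSO and diluted with 0.1 percent Tween 155 in water, are applied evenly to the surface of seeded soil (loam/sand, pH about 8.1) before emergence. Plants grow in the greenhouse for 3 weeks before visual rating against untreated controls on a 0-100 percent scale.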

The test system of data set [11] is velvetleaf (Abutilon theophrasti). As to the kind of experiment: Preemergence herbicidal activity. It counts as in vivo. The note with it: Table 6 (headed Post-emergent; text: preemergence), after 3 weeks. The method, boiled down:
as §9

The subject of data set [12] is pigweed (Amaranthus retroflexus). Put plainly: Preemergence herbicidal activity. It counts as in vivo. The note with it: Table 6 (headed Post-emergent; text: preemergence), after 3 weeks. Put shortly: as §9
The subject of data set [13] is field bindweed (Convolvulus arvensis). As to the kind of experiment: Range & Pasture Crop Testing (postemergence track sprayer). The class given is in vivo. As to the method:
as §1, §2, §3, §4, §5, §6, §7

For data set [14], the system named is White Clover (Trifolium repens). The description is as above. The class given is in vivo. Conditions: Table 10. The procedure:
as §1, §2, §3, §4, §5, §6, §7

Data set [15] relates to sicklepod (Cassia obtusifolia). As to the kind of experiment: Range & Pasture Crop Testing (postemergence track sprayer). The class given is in vivo. The note with it: Table 8; salts of Compound 1; dose for 80 percent control. As to the method: as §1, §2, §3, §4, §5, §6, §7
Where [16] appears, read: Table 10, clover pasture, postemergence.

For the molecule “4-Amino-3,6-dichloro-5-methylthiopyridine-2-carboxylic acid [Compound 23]”, the “Post-emergent Evaluation - % control CIRAR” value in data set [1] worked out at 80%. Besides, in [2], the “Post-emergent Evaluation - % control TRZAS” value was found to be 20%. The “Post-emergent Evaluation - % control CHEAL” value in data set [3] was found to be 90%. Besides, the “Post-emergent % Control POLCO” value in data set [4] (Table 1, visual, after 2 weeks) came to 98%. Moreover, in data set [4] (Table 5), the “Post-emergent Evaluation - % control POLCO” value is given as 98%. Also, in data set [5] (Table 1, visual, after 2 weeks), the “Post-emergent % Control STEME” value is recorded as 90%. Besides, the “Post-emergent Evaluation - % control STEME” value in data set [5] (Table 5) stood at 30%. Besides, in data set [6], the “Post-emergent % Control XANST” value was determined as 90%. Also, the “Post-emergent Evaluation - % control AMBEL” value in [7] was determined as 85%. Besides, the “Post-emergent Evaluation - % control RUMOB” value in data set [8] came to 100%. The “Post-emergent Evaluation - % control AGRCR” value in [9] is given as 30%. Besides, the “% Control IPOHE” value in data set [10] (rate 560 ppm) is on record as 0%. Besides, the “% Control ABUTH” value in data set [11] (rate 560 ppm) turned out to be 40%. For the same molecule, the “% Control AMARE” value in [12] (rate 560 ppm) stood at 40%.

`CC(C)OC(=O)c1nc(Cl)cc(N)c1Cl` [Compound 6, i-propyl 4-amino-3,6-dichloropyridine-2-carboxylate] gave a melting point of 114 to 115 °C. Also, in [1], the “Post-emergent Evaluation - % control CIRAR” value was 95%. In addition, the “GR80 CIRAR” value in data set [1] (setting [16]) is recorded as <17.5 g/ha. In addition, the “GR80 CONAR” value in data set [13] (setting [16]) is 98.8 g/ha. The “GR20 TRFRE” value in data set [14] is recorded as 98.8 g/ha. The pest or weed control at 125 ppm in [4] (Fallopia convolvulus, post-emergence, 336 h, Table 1, visual, after 2 weeks, read-out: Post-emergent % Control POLCO) came to 100%. Besides, in [5] (Stellaria media, post-emergence, 336 h, Table 1, visual, after 2 weeks, read-out: Post-emergent % Control STEME), the pest or weed control at 125 ppm was 100%. Besides, the pest or weed control at 125 ppm in data set [6] (Xanthium strumarium, post-emergence, 336 h, read-out: Post-emergent % Control XANST) stood at 100%. Also, the “Post-emergent Evaluation - % control AMBEL” value in data set [7] is on record as 93%. For the same molecule, the “Post-emergent Evaluation - % control RUMOB” value in [8] was 100%. Further, the “Post-emergent Evaluation - % control AGRCR” value in data set [9] is on record as 30%. The pest or weed control at 280 ppm in data set [10] (Ipomoea, 504 h, rate 280 ppm, read-out: % Control IPOHE) came to 100%. Moreover, the pest or weed control at 280 ppm in data set [11] (Abutilon theophrasti, 504 h, rate 280 ppm, read-out: % Control ABUTH) amounted to 100%. In addition, the pest or weed control at 280 ppm in data set [12] (Amaranthus retroflexus, 504 h, rate 280 ppm, read-out: % Control AMARE) came to 100%.

With `Nc1cc(Cl)nc(C(=O)[O-])c1Cl.[K+]` [potassium salt], the “Post-emergent GR80 CASOB” value in [15] is recorded as <8.8 g/Ha. Besides, the “Post-emergent GR80 CIRAR” value in [1] (Table 8, salts of Compound 1, 3 week evaluation) is listed as 27 g/Ha. In [13] (Table 8, salts of Compound 1, dose for 80 percent control), the “Post-emergent GR80 CONAR” value is given as 36 g/Ha.

Usually melting point stands for the temperature of the solid-liquid transition.
